± gives the expanded uncertainty stated by the source.
Key:
[1] = Crystal; DSC
[2] = Molar enthalpy of transition or fusion; settings: Crystal; DSC

In the case of O=C(O)c1cc2ccccc2cc1O [3-hydroxy-2-naphthoic acid], the Triple point temperature [1] is reported as 494.4 ± 0.81 K and the “Molar enthalpy of transition or fusion” value [2] is reported as 6.62 ± 0.311 kcal/mol.

Reference: the NIST ThermoML archive (doi:10.1021/acs.jced.8b00578)
